Test results: US11607458B2 (Georgia State University Research Foundation, Inc, priority 2017, dated 2023)

How the values were obtained:
[1] = HPLC studies of reaction kinetics of tetrazine prodrugs with cyclooctyne alkynes (Kobs, second-order rate constant k2); type: physicochemical; details: for Kobs: prodrug 25 μM; for k2 at 37° C. (second order rate constant) / k2 at r.t (second order rate constant): PBS containing 10% DMSO, n = 3
Protocol: Stock solution preparation. Each of the tetrazine prodrugs (compounds 1b, 1c, and 1d) was dissolved in DMSO to afford a 500-μM stock solution. Each of the alkynes (compounds 2a, 2b, 2c, and 2d) was dissolved in DMSO to afford a 50-mM stock solution. Doxorubicin (Dox) and dansylamino compound (DA) 1.1b were each dissolved in DMSO to afford 1-mM stock solutions.
(§1) HPLC method A.: mobile phase A (10 mM NaH2PO4 in water, pH=5.0) and mobile phase B (ACN), flow rate: 1 mL/min, running time: 30 min, the gradient elution method: 25% B from 0 to 6 min, 25% to 50% B from 6 to 8 min, 50% B from 8 to 15 min, 50% to 99% B from 15 to 20 min, 99% B from 20 to 25 min, 99% to 25% B from 25 to 30 min. Detection wavelength: 256 nm. Column: Waters C18 3.5 μM, 4.6×100 mm. Injection volume: 20 μL.
as §1, with “method B:” for “method A.:”, “method: 30%” for “method: 25%”, “min, 30%” for “min, 25%”, “25 min.” for “25 min,”, “to 30%” for “to 25%”, “Detection wavelength 1: 256, detection wavelength 2: 337” for “Detection wavelength: 256”
(§2) General procedures HPLC studies of reaction kinetics. To three 20-ml vials with 9 mL PBS were added a solution of tetrazine prodrug (500 μL, 500 μM). 350 μL, 300 μL and 250 μL DMSO were added to vial respectively, and then 150 μL, 200 μL and 250 μL of the alkyne solution (50 mM in DMSO) were added to the vials to afford final concentrations of alkyne 0.75 mM, 1 mM and 1.25 mM in PBS (10% DMSO, 25 μM prodrug) respectively. The reaction was stirred at r.t or 37° C. respectively. Every 30 min about 500 μL reaction mixtures were taken out and 20 μL of them were injected into the HPLC by the autosampler; the rest of them were poured back to the reaction mixture. (Note: In the cases of prodrugs 1d or 1b reacting with alkyne 2d at 37° C., the final concentrations of 2d in the kinetic studies were 250 μM, 300 μM and 350 μM).
Determination of second-order rate constants. The reaction rate constant, kobs, was calculated for each concentration of the alkyne by fitting the prodrug areas versus time using eq. 1: Y=A exp(−kobst) eq. 1 where Y is the prodrug area, and t is time. The pseudo-first-order rate constant, kobs, was then plotted against the concentration of alkyne to yield the second-order rate constant using eq 2: kobs=k2[Alkyne] eq. 2 where k2 is the second-order rate constant.

[2] = Release of the parent drug (Dox / dansyl amine) from prodrugs treated with alkynes, monitored by HPLC; type: physicochemical; details: r.t, PBS 10% DMSO
Protocol: (§3) Standard curve of Dox concentration measurement. To four HPLC vials containing 0.9 mL PBS (size: 1.5 mL) were added 25, 15, 20, 10 μL Dox stock solution (1 mM) respectively. Then defined amounts DMSO (975, 985, 980, and 990 μL) were added to each vial to afford final concentration of four vials were 25, 15, 20, 10 μM in PBS (10% DMSO), respectively. The samples were analyzed with HPLC method A. Dox retention time: 4.0 min.
as §3, with “for DA” for “of Dox”, “B. DA” for “A. Dox”, “5.8” for “4.0”
as §2
Results. The results from the reaction kinetics studies of the tetrazine-cyclooctyne system are summarized below in Table 4. Prodrugs 1d or 1b (25 μM) were treated with alkynes 2d, 2c ,2a, or 2b at different concentrations at room temperature (r.t.) or 37° C., respectively. The prodrug consumption and release of the parent drug were monitored by HPLC (Table 4).

## C#CCOc1ccc(-c2nnc(C(=O)NC3CC(OC4CC(O)(C(=O)CO)Cc5c(O)c6c(c(O)c54)C(=O)c4c(OC)cccc4C6=O)OC(C)C3O)nn2)cc1 (stereo not drawn) [1b]
[1]; 37° C., alkyne 2a 0.75 mM, Expt. 1
  Kobs: 0.418 h⁻¹
[1]; 37° C., alkyne 2a 0.75 mM, Expt. 2
  Kobs: 0.438 h⁻¹
[1]; 37° C., alkyne 2a 0.75 mM, Expt. 3
  Kobs: 0.495 h⁻¹
[1]; 37° C., alkyne 2a 1.00 mM, Expt. 1
  Kobs: 0.546 h⁻¹
[1]; 37° C., alkyne 2a 1.00 mM, Expt. 2
  Kobs: 0.598 h⁻¹
[1]; 37° C., alkyne 2a 1.00 mM, Expt. 3
  Kobs: 0.678 h⁻¹
[1]; 37° C., alkyne 2a 1.25 mM, Expt. 1
  Kobs: 0.673 h⁻¹
[1]; 37° C., alkyne 2a 1.25 mM, Expt. 2
  Kobs: 0.739 h⁻¹
[1]; 37° C., alkyne 2a 1.25 mM, Expt. 3
  Kobs: 0.857 h⁻¹
[1]; 37° C., alkyne 2b 0.75 mM, Expt. 1
  Kobs: 0.486 h⁻¹
[1]; 37° C., alkyne 2b 0.75 mM, Expt. 2
  Kobs: 0.503 h⁻¹
[1]; 37° C., alkyne 2b 0.75 mM, Expt. 3
  Kobs: 0.533 h⁻¹
[1]; 37° C., alkyne 2b 1.00 mM, Expt. 1
  Kobs: 0.635 h⁻¹
[1]; 37° C., alkyne 2b 1.00 mM, Expt. 2
  Kobs: 0.672 h⁻¹
[1]; 37° C., alkyne 2b 1.00 mM, Expt. 3
  Kobs: 0.622 h⁻¹
[1]; 37° C., alkyne 2b 1.25 mM, Expt. 1
  Kobs: 0.783 h⁻¹
[1]; 37° C., alkyne 2b 1.25 mM, Expt. 2
  Kobs: 0.846 h⁻¹
[1]; 37° C., alkyne 2b 1.25 mM, Expt. 3
  Kobs: 0.905 h⁻¹
[1]; 37° C., alkyne 2c 0.75 mM, Expt. 1
  Kobs: 0.0607 h⁻¹
[1]; 37° C., alkyne 2c 0.75 mM, Expt. 2
  Kobs: 0.0671 h⁻¹
[1]; 37° C., alkyne 2c 0.75 mM, Expt. 3
  Kobs: 0.0696 h⁻¹
[1]; 37° C., alkyne 2c 1.00 mM, Expt. 1
  Kobs: 0.0798 h⁻¹
[1]; 37° C., alkyne 2c 1.00 mM, Expt. 2
  Kobs: 0.0895 h⁻¹
[1]; 37° C., alkyne 2c 1.00 mM, Expt. 3
  Kobs: 0.0941 h⁻¹
[1]; 37° C., alkyne 2c 1.25 mM, Expt. 1
  Kobs: 0.0986 h⁻¹
[1]; 37° C., alkyne 2c 1.25 mM, Expt. 2
  Kobs: 0.112 h⁻¹
[1]; 37° C., alkyne 2c 1.25 mM, Expt. 3
  Kobs: 0.119 h⁻¹
[1]; 37° C., alkyne 2d 0.25 mM, Expt. 1
  Kobs: 1.90 h⁻¹
[1]; 37° C., alkyne 2d 0.25 mM, Expt. 2
  Kobs: 1.81 h⁻¹
[1]; 37° C., alkyne 2d 0.25 mM, Expt. 3
  Kobs: 1.97 h⁻¹
[1]; 37° C., alkyne 2d 0.3 mM, Expt. 1
  Kobs: 2.28 h⁻¹
[1]; 37° C., alkyne 2d 0.3 mM, Expt. 2
  Kobs: 2.15 h⁻¹
[1]; 37° C., alkyne 2d 0.3 mM, Expt. 3
  Kobs: 2.38 h⁻¹
[1]; 37° C., alkyne 2d 0.35 mM, Expt. 1
  Kobs: 2.65 h⁻¹
[1]; 37° C., alkyne 2d 0.35 mM, Expt. 2
  Kobs: 2.48 h⁻¹
[1]; 37° C., alkyne 2d 0.35 mM, Expt. 3
  Kobs: 2.78 h⁻¹
[1]; alkyne 2a, 37° C.
  k2 at 37° C. (second order rate constant): 0.17 M⁻¹ s⁻¹
[1]; alkyne 2a, 37° C., listed as lb
  k2 at 37° C. (second order rate constant): 0.17 ± 0.05 M⁻¹ s⁻¹
[1]; alkyne 2a, r.t
  k2 at r.t (second order rate constant): 0.061 ± 0.013 M⁻¹ s⁻¹
[1]; alkyne 2b, 37° C.
  k2 at 37° C. (second order rate constant): 0.19 M⁻¹ s⁻¹
[1]; alkyne 2b, 37° C., listed as lb
  k2 at 37° C. (second order rate constant): 0.19 ± 0.04 M⁻¹ s⁻¹
[1]; alkyne 2b, r.t
  k2 at r.t (second order rate constant): 0.065 ± 0.013 M⁻¹ s⁻¹
[1]; alkyne 2c, 37° C.
  k2 at 37° C. (second order rate constant): 0.025 ± 0.006 M⁻¹ s⁻¹
[1]; alkyne 2c, r.t
  k2 at r.t (second order rate constant): 0.0078 ± 0.0009 M⁻¹ s⁻¹
[1]; alkyne 2d, 37° C.
  k2 at 37° C. (second order rate constant): 2.1 M⁻¹ s⁻¹
[1]; alkyne 2d, 37° C., listed as lb
  k2 at 37° C. (second order rate constant): 2.1 ± 0.4 M⁻¹ s⁻¹
[1]; alkyne 2d, r.t
  k2 at r.t (second order rate constant): 0.36 ± 0.07 M⁻¹ s⁻¹
[1]; r.t, alkyne 2a 0.75 mM, Expt. 1
  Kobs: 0.183 h⁻¹
[1]; r.t, alkyne 2a 0.75 mM, Expt. 2
  Kobs: 0.191 h⁻¹
[1]; r.t, alkyne 2a 0.75 mM, Expt. 3
  Kobs: 0.185 h⁻¹
[1]; r.t, alkyne 2a 1.00 mM, Expt. 1
  Kobs: 0.235 h⁻¹
[1]; r.t, alkyne 2a 1.00 mM, Expt. 2
  Kobs: 0.246 h⁻¹
[1]; r.t, alkyne 2a 1.00 mM, Expt. 3
  Kobs: 0.247 h⁻¹
[1]; r.t, alkyne 2a 1.25 mM, Expt. 1
  Kobs: 0.289 h⁻¹
[1]; r.t, alkyne 2a 1.25 mM, Expt. 2
  Kobs: 0.295 h⁻¹
[1]; r.t, alkyne 2a 1.25 mM, Expt. 3
  Kobs: 0.307 h⁻¹
[1]; r.t, alkyne 2b 0.75 mM, Expt. 1
  Kobs: 0.201 h⁻¹
[1]; r.t, alkyne 2b 0.75 mM, Expt. 2
  Kobs: 0.195 h⁻¹
[1]; r.t, alkyne 2b 0.75 mM, Expt. 3
  Kobs: 0.197 h⁻¹
[1]; r.t, alkyne 2b 1.00 mM, Expt. 1
  Kobs: 0.261 h⁻¹
[1]; r.t, alkyne 2b 1.00 mM, Expt. 2
  Kobs: 0.257 h⁻¹
[1]; r.t, alkyne 2b 1.00 mM, Expt. 3
  Kobs: 0.261 h⁻¹
[1]; r.t, alkyne 2b 1.25 mM, Expt. 1
  Kobs: 0.309 h⁻¹
[1]; r.t, alkyne 2b 1.25 mM, Expt. 2
  Kobs: 0.318 h⁻¹
[1]; r.t, alkyne 2b 1.25 mM, Expt. 3
  Kobs: 0.326 h⁻¹
[1]; r.t, alkyne 2c 0.75 mM, Expt. 1
  Kobs: 0.0202 h⁻¹
[1]; r.t, alkyne 2c 0.75 mM, Expt. 2
  Kobs: 0.0209 h⁻¹
[1]; r.t, alkyne 2c 0.75 mM, Expt. 3
  Kobs: 0.0207 h⁻¹
[1]; r.t, alkyne 2c 1.00 mM, Expt. 1
  Kobs: 0.0282 h⁻¹
[1]; r.t, alkyne 2c 1.00 mM, Expt. 2
  Kobs: 0.0262 h⁻¹
[1]; r.t, alkyne 2c 1.00 mM, Expt. 3
  Kobs: 0.0278 h⁻¹
[1]; r.t, alkyne 2c 1.25 mM, Expt. 1
  Kobs: 0.0353 h⁻¹
[1]; r.t, alkyne 2c 1.25 mM, Expt. 2
  Kobs: 0.0341 h⁻¹
[1]; r.t, alkyne 2c 1.25 mM, Expt. 3
  Kobs: 0.0344 h⁻¹
[1]; r.t, alkyne 2d 0.75 mM, Expt. 1
  Kobs: 0.894 h⁻¹
[1]; r.t, alkyne 2d 0.75 mM, Expt. 2
  Kobs: 0.976 h⁻¹
[1]; r.t, alkyne 2d 0.75 mM, Expt. 3
  Kobs: 0.993 h⁻¹
[1]; r.t, alkyne 2d 1.00 mM, Expt. 1
  Kobs: 1.18 h⁻¹
[1]; r.t, alkyne 2d 1.00 mM, Expt. 2
  Kobs: 1.30 h⁻¹
[1]; r.t, alkyne 2d 1.00 mM, Expt. 3
  Kobs: 1.34 h⁻¹
[1]; r.t, alkyne 2d 1.25 mM, Expt. 1
  Kobs: 1.47 h⁻¹
[1]; r.t, alkyne 2d 1.25 mM, Expt. 2
  Kobs: 1.62 h⁻¹
[1]; r.t, alkyne 2d 1.25 mM, Expt. 3
  Kobs: 1.69 h⁻¹
[2]; alkyne 2a
  Time of the Dox peak (in brackets in the Dox Peak % cell): 19 h
[2]; alkyne 2b
  Time of the Dox peak (in brackets in the Dox Peak % cell): 18 h
[2]; alkyne 2c
  Time of the Dox peak (in brackets in the Dox Peak % cell): 21 h
[2]; alkyne 2d
  Time of the Dox peak (in brackets in the Dox Peak % cell): 48 h
